Results taken from patent US12209078B2, “Crystalline forms of carbazole inhibitors of RhoGTPase for the treatment of disease” (MBQ Pharma, priority 2021, dated 2025).

Legend:
[1] = Thermogravimetric analysis (TGA); type: physicochemical; conditions: heating to 400° C. under N2 at 5.0° C./min
Description: Thermogravimetric Analysis (TGA) Thermographs were recorded in a Thermogravimetric Analyzer (TGA) from TA Instruments Inc. (Q500) calibrated with calcium oxalate monohydrate (CaC2O4·H2O) standard to determine if MBQ-167 degrades before melting. Between 1.000-2.000 mg of the crystalline sample were equilibrated at 25° C. for 5 min before heating to 400° C. under N2 atmosphere (60 mL/min) at a rate of 5.0° C./min and a temperature accuracy of 0.1° C. Data was analyzed with the TA Universal Analysis 2000 software (version 4.5A).
Decomposition of the Form I polymorph (a) begins at about 184.7° C., while onset for decomposition of the Form II polymorph (b) begins at about 193.0° C.

[2] = Differential scanning calorimetry (DSC); type: physicochemical; conditions: heating 5.0° C./min under N2
Description: Differential Scanning calorimetry (DSC) DSC was performed to determine the melting temperature (Tm) and enthalpy of fusion (ΔfusH) of MBQ-167. A differential scanning calorimeter (DSC) from TA Instruments Inc. (Q2000) equipped with a RCS40 single-stage refrigeration system was employed to carry out these measurements. The calibration of the DSC was conducted with an indium standard (Tm=156.6° C. and ΔfusH=28.54 J/g). Between 1.000-3.000 mg of the crystalline sample was weighed using a XP26 microbalance from Mettler Toledo (±0.002 mg) and placed on Tzero aluminum pans that were hermetically sealed. Samples were equilibrated at 25° C. for 5 min before heating to 250° C. at a rate of 5.0° C./min and then was cooled to 25° C. at a heating rate of 10° C./min under a N2 atmosphere (50 mL/min) and a temperature accuracy of 0.1° C.
A first endothermic peak, with an onset of 128.22° C. and centered at 129.82° C., corresponding to 0.4504 W/g, is followed by a second endothermic peak, with an onset of 152.81° C. and centered at 153.64° C., corresponding to 0.5809 W/g.
Overlay of the two DSC thermographs, shown in FIG. 3, makes apparent the source of the behavior of the Form II polymorph. The Form I polymorph undergoes a single endothermic phase transition to the melt. […]

onset of decomposition (TGA) [1]	centre of first endothermic peak (phase transition to the more stable Form I polymorph) [2]	onset of first endothermic peak (phase transition to the more stable Form I polymorph) [2]	Structure (SMILES)	decomposition relative to melting (TGA) [1]
about 184.7 °C			CCn1c2ccccc2c2cc(-n3nncc3-c3ccccc3)ccc21 [Form I polymorph, 9-Ethyl-3-(5-phenyl-1H-1,2,3-triazol-1-yl)-9H-carbazole]	
about 193.0 °C	129.82 °C	128.22 °C	CCn1c2ccccc2c2cc(-n3nncc3-c3ccccc3)ccc21 [Form II polymorph, 9-Ethyl-3-(5-phenyl-1H-1,2,3-triazol-1-yl)-9H-carbazole]	
			CCn1c2ccccc2c2cc(-n3nncc3-c3ccccc3)ccc21 [MBQ-167, 9-ethyl-3-(5-phenyl-1H-1,2,3-triazol-1-yl)-9H-carbazole]	starts to decompose after the melting temperature
